Measurements from PubChem BioAssay (NCI).
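Interpolation was linear, between the two tested concentrations surrounding the appropriate level; five concentrations were tested over 48 hours in 96-well plates. The concentration for full growth arrest is given as TGI.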

What was measured:
Experiment in all cases: NCI tumour cell line growth inhibition, 48 h
786-0 renal = tested on: 786-0 renal
A498 renal = tested on: A498 renal
A549 NSCLC = tested on: A549 NSCLC
ACHN renal = tested on: ACHN renal
CAKI-1 renal = tested on: CAKI-1 renal
CCRF-CEM leukemia = tested on: CCRF-CEM leukemia
COLO 205 colon = tested on: COLO 205 colon
DLD-1 colon = tested on: DLD-1 colon
DMS 114 small cell lung = tested on: DMS 114 small cell lung
DMS 273 small cell lung = tested on: DMS 273 small cell lung
EKVX NSCLC = tested on: EKVX NSCLC
HCT-116 colon = tested on: HCT-116 colon
HCT-15 colon = tested on: HCT-15 colon
HL-60(TB) leukemia = tested on: HL-60(TB) leukemia
HOP-18 NSCLC = tested on: HOP-18 NSCLC
HOP-62 NSCLC = tested on: HOP-62 NSCLC
HOP-92 NSCLC = tested on: HOP-92 NSCLC
HT29 colon = tested on: HT29 colon
IGROV1 ovarian = tested on: IGROV1 ovarian
K-562 leukemia = tested on: K-562 leukemia
KM12 colon = tested on: KM12 colon
KM20L2 colon = tested on: KM20L2 colon
LOX IMVI melanoma = tested on: LOX IMVI melanoma
LXFL 529 NSCLC = tested on: LXFL 529 NSCLC
M14 melanoma = tested on: M14 melanoma
M19-MEL melanoma = tested on: M19-MEL melanoma
MALME-3M melanoma = tested on: MALME-3M melanoma
MOLT-4 leukemia = tested on: MOLT-4 leukemia
NCI-H226 lung = tested on: NCI-H226 lung
NCI-H460 lung = tested on: NCI-H460 lung
NCI-H522 lung = tested on: NCI-H522 lung
OVCAR-3 ovarian = tested on: OVCAR-3 ovarian
OVCAR-4 ovarian = tested on: OVCAR-4 ovarian
OVCAR-5 ovarian = tested on: OVCAR-5 ovarian
OVCAR-8 ovarian = tested on: OVCAR-8 ovarian
RPMI-8226 leukemia = tested on: RPMI-8226 leukemia
RXF 393 renal = tested on: RXF 393 renal
RXF-631 renal = tested on: RXF-631 renal
SF-268 CNS = tested on: SF-268 CNS
SF-295 CNS = tested on: SF-295 CNS
SF-539 CNS = tested on: SF-539 CNS
SK-MEL-28 melanoma = tested on: SK-MEL-28 melanoma
SK-MEL-5 melanoma = tested on: SK-MEL-5 melanoma
SN12C renal = tested on: SN12C renal
SNB-19 CNS = tested on: SNB-19 CNS
SNB-75 CNS = tested on: SNB-75 CNS
SNB-78 CNS = tested on: SNB-78 CNS
SW-620 colon = tested on: SW-620 colon
TK-10 renal = tested on: TK-10 renal
U251 CNS = tested on: U251 CNS
UACC-257 melanoma = tested on: UACC-257 melanoma
UACC-62 melanoma = tested on: UACC-62 melanoma
UO-31 renal = tested on: UO-31 renal
HCC-2998 colon = tested on: HCC-2998 colon
NCI-H23 lung = tested on: NCI-H23 lung
SK-MEL-2 melanoma = tested on: SK-MEL-2 melanoma
SK-OV-3 ovarian = tested on: SK-OV-3 ovarian
SR leukemia = tested on: SR leukemia
XF 498 CNS = tested on: XF 498 CNS

`CCN(CC)CCOC(=O)/C(=C/c1ccc(OC)cc1)c1cc(OC)c(OC)c(OC)c1` was tested, and the TGI (786-0 renal) was 98.8 µM, the TGI (A498 renal) was 8.64 µM and the TGI (A549 NSCLC) was greater than 100 µM. It also gave a TGI (ACHN renal) greater than 100 µM, a TGI (CAKI-1 renal) of 38 µM and a TGI (CCRF-CEM leukemia) greater than 100 µM. The TGI (COLO 205 colon) was 18.9 µM, the TGI (DLD-1 colon) was greater than 100 µM and the TGI (DMS 114 small cell lung) was 22.2 µM. For the same molecule, the TGI (DMS 273 small cell lung) was 23.4 µM, the TGI (EKVX NSCLC) was greater than 100 µM and the TGI (HCT-116 colon) was greater than 100 µM. For the same molecule, the TGI (HCT-15 colon) was greater than 100 µM, the TGI (HL-60(TB) leukemia) was 16.4 µM and the TGI (HOP-18 NSCLC) was greater than 100 µM. The TGI (HOP-62 NSCLC) was 31.7 µM, the TGI (HOP-92 NSCLC) was 54.1 µM and the TGI (HT29 colon) was 18 µM. The TGI (IGROV1 ovarian) was greater than 100 µM, the TGI (K-562 leukemia) was 27.9 µM and the TGI (KM12 colon) was 16 µM. It also gave a TGI (KM20L2 colon) of 24.6 µM, a TGI (LOX IMVI melanoma) of 18.6 µM and a TGI (LXFL 529 NSCLC) of 23.1 µM. The TGI (M14 melanoma) was 19.9 µM, the TGI (M19-MEL melanoma) was greater than 100 µM and the TGI (MALME-3M melanoma) was 34.1 µM. It also gave a TGI (MOLT-4 leukemia) greater than 100 µM, a TGI (NCI-H226 lung) of 54.5 µM and a TGI (NCI-H460 lung) of 51.2 µM. For the same molecule, the TGI (NCI-H522 lung) was 9.32 µM, the TGI (OVCAR-3 ovarian) was 64.3 µM and the TGI (OVCAR-4 ovarian) was greater than 100 µM. It also gave a TGI (OVCAR-5 ovarian) of 43.7 µM, a TGI (OVCAR-8 ovarian) of 74.2 µM and a TGI (RPMI-8226 leukemia) of 52.5 µM. For the same molecule, the TGI (RXF 393 renal) was 5 µM, the TGI (RXF-631 renal) was greater than 100 µM and the TGI (SF-268 CNS) was greater than 100 µM. It also gave a TGI (SF-295 CNS) of 6.3 µM, a TGI (SF-539 CNS) of 10.8 µM and a TGI (SK-MEL-28 melanoma) greater than 100 µM. For the same molecule, the TGI (SK-MEL-5 melanoma) was 11.4 µM, the TGI (SN12C renal) was 57.5 µM and the TGI (SNB-19 CNS) was 80.6 µM. It also gave a TGI (SNB-75 CNS) of 11.6 µM, a TGI (SNB-78 CNS) greater than 100 µM and a TGI (SW-620 colon) greater than 100 µM. For the same molecule, the TGI (TK-10 renal) was greater than 100 µM, the TGI (U251 CNS) was 25.5 µM and the TGI (UACC-257 melanoma) was 19.3 µM. It also gave a TGI (UACC-62 melanoma) of 24.1 µM and a TGI (UO-31 renal) of 31.9 µM.

`Cc1ccc(NC(=O)CC/C(CC(=O)c2ccc(Cl)cc2)=N\NC(=O)C(=O)NN)cc1C` gave a TGI (786-0 renal) greater than 100 µM, a TGI (A498 renal) greater than 100 µM and a TGI (A549 NSCLC) greater than 100 µM. The TGI (ACHN renal) was greater than 100 µM, the TGI (CAKI-1 renal) was greater than 100 µM and the TGI (CCRF-CEM leukemia) was greater than 100 µM. The TGI (COLO 205 colon) was greater than 100 µM, the TGI (DLD-1 colon) was greater than 100 µM and the TGI (DMS 114 small cell lung) was greater than 100 µM. The TGI (DMS 273 small cell lung) was greater than 100 µM, the TGI (EKVX NSCLC) was greater than 100 µM and the TGI (HCC-2998 colon) was greater than 100 µM. The TGI (HCT-116 colon) was greater than 100 µM, the TGI (HCT-15 colon) was greater than 100 µM and the TGI (HL-60(TB) leukemia) was greater than 100 µM. For the same molecule, the TGI (HOP-18 NSCLC) was greater than 100 µM, the TGI (HOP-62 NSCLC) was greater than 100 µM and the TGI (HT29 colon) was greater than 100 µM. The TGI (IGROV1 ovarian) was greater than 100 µM, the TGI (K-562 leukemia) was greater than 100 µM and the TGI (KM12 colon) was greater than 100 µM. The TGI (KM20L2 colon) was greater than 100 µM, the TGI (LOX IMVI melanoma) was greater than 100 µM and the TGI (LXFL 529 NSCLC) was greater than 100 µM. It also gave a TGI (M14 melanoma) greater than 100 µM, a TGI (M19-MEL melanoma) greater than 100 µM and a TGI (MALME-3M melanoma) greater than 100 µM. For the same molecule, the TGI (MOLT-4 leukemia) was greater than 100 µM, the TGI (NCI-H226 lung) was greater than 100 µM and the TGI (NCI-H23 lung) was greater than 100 µM. The TGI (NCI-H460 lung) was greater than 100 µM, the TGI (NCI-H522 lung) was greater than 100 µM and the TGI (OVCAR-3 ovarian) was greater than 100 µM. It also gave a TGI (OVCAR-4 ovarian) greater than 100 µM, a TGI (OVCAR-5 ovarian) greater than 100 µM and a TGI (OVCAR-8 ovarian) greater than 100 µM. For the same molecule, the TGI (RPMI-8226 leukemia) was greater than 100 µM, the TGI (RXF 393 renal) was greater than 100 µM and the TGI (SF-268 CNS) was greater than 100 µM. It also gave a TGI (SF-295 CNS) greater than 100 µM, a TGI (SF-539 CNS) greater than 100 µM and a TGI (SK-MEL-2 melanoma) greater than 100 µM. The TGI (SK-MEL-28 melanoma) was greater than 100 µM, the TGI (SK-MEL-5 melanoma) was greater than 100 µM and the TGI (SK-OV-3 ovarian) was greater than 100 µM. For the same molecule, the TGI (SN12C renal) was greater than 100 µM, the TGI (SNB-19 CNS) was greater than 100 µM and the TGI (SNB-75 CNS) was greater than 100 µM. The TGI (SNB-78 CNS) was greater than 100 µM, the TGI (SR leukemia) was greater than 100 µM and the TGI (SW-620 colon) was greater than 100 µM. It also gave a TGI (TK-10 renal) greater than 100 µM, a TGI (U251 CNS) greater than 100 µM and a TGI (UACC-257 melanoma) greater than 100 µM. The TGI (UACC-62 melanoma) was greater than 100 µM, the TGI (UO-31 renal) was greater than 100 µM and the TGI (XF 498 CNS) was greater than 100 µM.
